Here are results for 4 molecules from ChEMBL document CHEMBL1201862, “PubChem BioAssay data set” (2004).

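Each compound was tested at five concentrations against cells in 96-well plates for 48 hours. At the GI50, growth is halved.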 The source made the active and inactive calls. No stated cut-off is given here; in the data, active = GI50 up to about 1.1 µM and inactive = higher. A value given as a limit tells only on which side of the number the result lay.

Among the test systems are MCF7; SK-MEL-5; Malme-3M; K562; OVCAR-4; U-251; SNB-19; SN12C; HT-29; UACC-257; HOP-92; SF-268; SR; NCI-H226; M14; NCI-H522; ACHN; SK-MEL-28; HCT-116; NCI-H23.
Common to all, as to test: NCI-60 cell line screen, 48 h

As for `O=C(c1ccc(Cl)cc1)C(O)c1ccc(Cl)cc1` (stereo not given), the GI50 in the experiment on MCF7 was 75.7 µM (inactive); with SK-MEL-5, 30.9 µM (inactive); in the experiment with Malme-3M, 40.3 µM (inactive); in the experiment on K562, 30.8 µM (inactive); in the experiment with OVCAR-4 it was 86.3 µM (inactive); in the experiment on U-251 it was > 100 µM (inactive). For the same molecule, the GI50 in the experiment with SNB-19 is > 100 µM (inactive); in the experiment on SN12C, > 100 µM (inactive); in the experiment with HT-29 it was > 100 µM (inactive); with UACC-257, 52.8 µM (inactive); in the experiment on HOP-92, 30.8 µM (inactive); in the experiment with SF-268, > 100 µM (inactive). In addition, the GI50 is 25.4 µM (inactive) in the experiment on SR; > 100 µM (inactive) in the experiment with NCI-H226; > 100 µM (inactive) in the experiment with M14; 42 µM (inactive) in the experiment on NCI-H522; > 100 µM (inactive) in the experiment with ACHN; > 100 µM (inactive) with SK-MEL-28. Besides, the GI50 was > 100 µM (inactive) in the experiment with HCT-116 and 70.3 µM (inactive) with NCI-H23.
Turning to `Cc1ccc2nc(C(=O)O)c(=O)[nH]c2c1`, the GI50 in the experiment on MCF7, in the experiment on SK-MEL-5, in the experiment on Malme-3M, in the experiment on K562, in the experiment on OVCAR-4 and in the experiment with U-251 was > 100 µM (inactive) in each case. Besides, the GI50 in the experiment with SNB-19, with SN12C, in the experiment on HT-29, in the experiment on UACC-257, in the experiment with HOP-92 and in the experiment with SF-268 was > 100 µM (inactive) in each case. Besides, the GI50 in the experiment with SR, in the experiment with NCI-H226, in the experiment on M14, with NCI-H522, with ACHN and in the experiment with SK-MEL-28 was > 100 µM (inactive) each time. Further, the GI50 in the experiment with HCT-116 and with NCI-H23 was > 100 µM (inactive) in each case.
Turning to `c1ccc2c(Nc3ncco3)cccc2c1`, the GI50 with MCF7, in the experiment on SK-MEL-5, in the experiment with Malme-3M, with K562, in the experiment with OVCAR-4 and in the experiment on U-251 was > 10 µM (inactive) throughout. The GI50 with SNB-19, in the experiment on SN12C, in the experiment on HT-29, with UACC-257, in the experiment with HOP-92 and with SF-268 was > 10 µM (inactive) in each case. The GI50 in the experiment with SR was 0.001 µM (active); in the experiment with NCI-H226 it was > 10 µM (inactive); in the experiment on M14, > 10 µM (inactive); in the experiment with NCI-H522 it was > 10 µM (inactive); in the experiment on ACHN, > 10 µM (inactive); in the experiment on SK-MEL-28, > 10 µM (inactive). The GI50 with HCT-116 and in the experiment with NCI-H23 was > 10 µM (inactive) in each case.
`CC(C)CC1c2[nH]c3ccccc3c2C[C@H]2C(=O)NC(Cc3c[nH]c4ccccc34)C(=O)N12` (stereo not given in full): the GI50 was 14.8 µM (inactive) with MCF7; 12.7 µM (inactive) in the experiment with SK-MEL-5; 14.6 µM (inactive) in the experiment with Malme-3M; 11.5 µM (inactive) in the experiment with K562; 15.8 µM (inactive) in the experiment on OVCAR-4; 12.2 µM (inactive) in the experiment with U-251. Moreover, the GI50 in the experiment on SNB-19 is 16.8 µM (inactive); with SN12C, 15.9 µM (inactive); in the experiment with HT-29 it was 14.9 µM (inactive); in the experiment with UACC-257, 14.3 µM (inactive); in the experiment with HOP-92, 13.7 µM (inactive); in the experiment with SF-268, 18 µM (inactive). Moreover, the GI50 in the experiment on SR is 14 µM (inactive); in the experiment with NCI-H226 it was 26.9 µM (inactive); in the experiment on M14, 14.1 µM (inactive); with NCI-H522 it was 11.5 µM (inactive); with ACHN, 17.8 µM (inactive); in the experiment on SK-MEL-28 it was 17.3 µM (inactive). The GI50 was 11.2 µM (inactive) in the experiment on HCT-116 and 17.7 µM (inactive) with NCI-H23.
